Measurements: EP0470144B1, “BETA-HYDROXAMATE D-ASPARTIC ACID FOR TREATMENT OF VIRAL INFECTIONS AND TUMOURS” (priority 1989, dated 1990)

Key:
[1] = tested on: leucémie 1210, lymphome RBL5 et mélanome B16; settings: 600 mg/kg per day for 5 days; cited from earlier work
[2] = Stability of DAH versus pH and temperature over one month (colorimetric assay of the hydroxamate function); type: physicochemical; settings: for Pourcentage de dégradation du DAH sur une période de 30 jours: 30 days
Procedure: La fonction hydroxamate du DAH est mise en évidence par un complexe Fe3+-hydroxamate qui donne une coloration rouge-violet, quantifiée par méthode colorimétrique à 550 nm, à l'aide d'un spectrophotomètre de type Beckman DU 70.
La stabilité du DAH en fonction du pH et de la température a été déterminée sur une durée d'un mois par dosage colorimétrique spécifique de la fonction hydroxamate. Les résultats du tableau ci-après montrent que dans l'eau le DAH est stable jusqu'à une température de 50°C. Une dégradation significative du produit n'est constatée que dans des conditions extrêmes de pH, comme l'illustre le Tableau 1 ci-après. Tableau 1

HIV = HIV replication in lymphocyte cultures (infected with purified virus, or coculture of AIDS patients' and normal lymphocytes), reverse transcriptase activity in supernatant; type: cell-based; settings: DAH treatment 72 h (J0 to J3), RT followed 22 days; dose-dependent; 0,5-2 mM
Text: Cette inhibition est dose-dépendante. Les essais ont d'abord porté sur des lymphoytes de donneurs sains (Figures 1 et 2). On a pu mettre en évidence cette activité sur deux modèles de réplication du HIV : a) lymphocytes normaux infectés par le virus purifié et b) coculture des lymphocytes des malades du SIDA et de lymphocytes normaux. On a mesuré l'activité transcriptase inverse pendant 22 jours dans le surnageant de cultures cellulaires comme critère de prolifération virale. Le traitement avec le DAH a duré 72 heures de J₀ à J₃ de la manipulation (Figures 3, 4 et 5). […] Par contre, le DAH s'est montré plus toxique vis-à-vis des lymphocytes infectés par le virus du SIDA (Figures 6 et 7).
Effet du traitement par le DAH durant trois jours sur la production de transcriptase inverse virale par une coculture de lymphocytes des malades du SIDA et de lymphocytes normaux.
(●) absence de DAH (témoin) (o) concentration en DAH = 1 mM (□) concentration en DAH = 1,5 mM • . En abscisses : temps de croissance des cultures après inoculation du DAH (en jours) • . En ordonnées : activité transcriptase inverse (en CPM/million de cellules)
Effet du traitement par le DAH durant trois jours, sur la production de transcriptase inverse virale d'une culture de lymphocytes infectés par du virus purifié. […]

[3] = Tolerance to prolonged administration in mice (30 days); type: in vivo, souris; settings: 2 g/kg once daily or 1 g/kg twice daily
Text: La tolérance à l'administration prolongée du DAH a été évaluée sur un groupe de 10 souris traitées pendant 30 jours à une injection quotidienne de 2 g/kg, et un groupe de 10 souris recevant pendant la même durée deux injections de 1 g/kg par jour. La tolérance a été excellente, sans signe clinique de toxicité, sans décès et avec un poids corporel restant dans un intervalle de +/- 10 % par rapport à un groupe contrôle de même âge et de même poids initial.

FLV = assay: Friend virus (FLV) replication in SC1 cell culture, reverse transcriptase activity in supernatants; type: cell-based; settings: SC1 cells infected with FLV
Text: Des cultures de cellules SC1 traitées avec du polybrène ont été infectées avec du FLV (5 x 10⁵ particules infectantes pour 2 x 10⁵ cellules). Les cellules ont ensuite été mises en culture avec diverses concentrations de DAH et l'activité de réplication du FLV a été mesurée par dosage de l'activité transcriptase inverse apparaissant dans les surnageants de milieux de culture aux 2ème, 4ème et 6ème jour après l'infection.

virus de Friend = assay: Survival of mice infected with Friend virus; type: in vivo, souris DBA/2
Text: Dans d'autres essais, le virus a été maintenu par passages successif intrapéritonéaux chez la souris DBA/2. Cet entretien a été fait à partir de la rate de l'animal tous les 21 jours. L'activité du DAH a été évaluée en comparant les durées de survie des animaux à qui est injecté le virus, avec ou sans DAH. Le traitement a commencé trois jours après l'infection virale car on considère qu'il faut ce laps de temps pour qu'il y ait des séquences du virus dans le génome des précurseurs érythroïdes de la souris infectée. Après avoir fait varier le nombre d'injections journalières et la durée du traitement pour une dose donnée, il a été établi que 3 injections de 1g/kg/dose de DAH durant les 10 premiers jours et 2 injections de 1g/kg/dose de DAH pendant les 20 jours suivants, produisent un T/C de 239 %. Les résultats sont rapportés dans le tableau suivant : Tableau 2

lymphome L5178Y = assay: Antitumour activity in the L5178Y lymphoma model, survival; type: in vivo; settings: days 1,2,3,4,5; for Nombre d'animaux survivants: at 120 days
Text: L'activité antitumorale du DAH a été aussi étudiée sur deux autres modèles murins : le lymphome L5178Y et la leucémie P388.
Les cellules de lymphome murin (L5178Y) sont maintenues par passages intrapéritonéaux successifs chez la souris DBA/2 et injectées, pour les essais, à la dose de […] par souris.

## N[C@@H](CC(=O)NO)C(=O)O [DAH, D-acide aspartique β-hydroxamate]
[1]
  activité in vivo sur trois modèles tumoraux murins: aucune activité
[2]; HCl 0,1 N, + 4 °C
  Pourcentage de dégradation du DAH sur une période de 30 jours: 42%
[2]; HCl 0,1 N, + 25 °C
  Pourcentage de dégradation du DAH sur une période de 30 jours: 78%
[2]; HCl 0,1 N, + 50 °C
  Pourcentage de dégradation du DAH sur une période de 30 jours: 100%
[2]; H₂O, + 4 °C
  Pourcentage de dégradation du DAH sur une période de 30 jours: 0%
[2]; H₂O, + 25 °C
  Pourcentage de dégradation du DAH sur une période de 30 jours: 0%
[2]; H₂O, + 50 °C
  Pourcentage de dégradation du DAH sur une période de 30 jours: 0%
[2]; NaOH 0,1 N, + 4 °C
  Pourcentage de dégradation du DAH sur une période de 30 jours: 4%
[2]; NaOH 0,1 N, + 25 °C
  Pourcentage de dégradation du DAH sur une période de 30 jours: 36%
[2]; NaOH 0,1 N, + 50 °C
  Pourcentage de dégradation du DAH sur une période de 30 jours: 100%
[2]; in water, up to 50°C, one month
  Stabilité du DAH: stable
HIV
  multiplication virale du HIV (activité transcriptase inverse): inhibe de manière totale
[3]
  poids corporel, intervalle (+/-) par rapport à un groupe contrôle: ≤ 10%
[3]; no clinical sign of toxicity, no death
  tolérance à l'administration prolongée: excellente
FLV; DAH 0,2 mM
  activité transcriptase inverse abaissée: ~70%
FLV; DAH 0,5 mM
  activité transcriptase inverse abaissée: 80%
FLV; DAH 1 mM
  activité transcriptase inverse abaissée: 90%
Virus de Friend; 1 g/kg x 3/j J 1-10 then x 2/j J 11-30
  Nombre d'animaux survivants: 5/10
Virus de Friend; 1 g/kg x 3/j J 1-10 then x 2/j J 11-30, T/C = survival time treated/controls
  T/Cx100: 239,86%
Virus de Friend; 1 g/kg x 3/j, J 1-10
  Nombre d'animaux survivants: 0/10
  T/Cx100: 193%
Lymphome L5178Y; 1 g/kg x 3/j
  T/Cx100: 576%
  Nombre d'animaux survivants: 5/5
Lymphome L5178Y; 1 g/kg x 4/j
  T/Cx100: 576%
  Nombre d'animaux survivants: 5/5
